In US5728684A, “Determination of prodrugs metabolizable by the liver and therapeutic use thereof” (priority 1994, dated 1998):

Tests used:
[1] = system: alcohol oxidase; test: IPdR conversion by alcohol oxidase; type: biochemical; conditions: purified preparation
Excerpt: (§1) In order to determine which enzyme is responsible for the catalysts of this IPdR oxidation, a series of known oxido-reductases which have similar capability to oxidize a carbon atom with an adjacent amino group into a carbonyl functionality were explored for their ability to catalyze IPdR oxidation. […] A mixed function oxidase system prepared from the microsome of rat liver a broad spectrum of substrates and is NADPH dependent. […] Alcohol dehydrogenase (which can be obtained from Sigma) and alcohol oxidase (which can be obtained from Sigma) both reside in the soluble fraction of liver cell extracts, but the conversion of IPdR to […] was not detected with purified preparation of either enzyme under the same conditions that they converted their natural substrates effectively. […]

[2] = system: IPdR oxidase; test: Conversion of IPdR to IUdR by cell extracts (human liver); type: in vitro ADME; conditions: 3 samples
Method: (§2) Rat hepatic tissue was washed with ice-cold 1.15% KCl and blotted dry. The tissue was then homogenized with a tissue homogenizer, in a volume of 1.15% KCl that was 3 times the tissue weight, to form a 25% (w/v) homogenate. The homogenate was then centrifuged at 10,000 g for 10 minutes at 4° C. The resulting supernatant was filtered through Miracloth (similar to cheese cloth) then dialyzed overnight against 50 mM Tris-HCl buffer pH 7.5 and stored at -80° C. before use. Rat hepatocytes were obtained by a perfusion technique then the cells were extracted with 10 mM phosphate buffer, pH 7.5, containing 1M KCl and dialyzed for 4 hours against 50 mM Tris-HCl buffer pH 7.5.
For the standard assay condition, the reaction mixture contained 50 mM Tris-HCl, pH 7.5, 1 mM EDTA, 180 μM of IPdR (or its analogs) and approximately 0.01 mg protein of 10,000 g supernatant of tissue homogenate in a final volume of 500 μl and the incubation was at 37° C. for 10 minutes unless specified otherwise. 300 μl of reaction mixture was removed at the end of incubation and mixed with 630 μl acetonitrile then agitated. […] The samples were reconstituted to the original aliquot volume with the HPLC mobile phase buffer and analyzed on a Alltech RP-18 column. IPdR, IUdR and IU were detected at a UV absorption wavelength of 230 nm, and IPdR was also detected at a UV absorption wavelength of 335 nm. […]

[3] = system: IPdR oxidase; test: IUdR synthesis by partially purified IPdR oxidase; type: biochemical; conditions: 37° C., rat liver enzyme purified 380 fold
Method: Differential fractionation centrifugation was used in an attempt to localize this IPdR conversion enzyme activity in the liver homogenate. The enzyme activity assay was performed on each fraction. […] Further purification was achieved by use of DEAE cellulose column chromatography, blue Sepharose column chromatography and glycerol gradient centrifugation in this order. This IPdR oxidase activity was purified 380 fold starting from the crude extracts of rat liver. The partially purified enzyme catalyzed IUdR synthesis at a rate of 3.8 μmoles per minute per milligram of protein at 37° C. under these conditions. The apparent molecular weight of this enzyme in both rats and humans as determined by centrifugation on a 20 to 40% glycerol gradient is approximately 280,000 dalton. Neither cofactor nor divalent cations requirement has been found for the rat liver enzyme or the human liver enzyme.

[4] = system: Alcohol dehydrogenase; test: IPdR conversion by alcohol dehydrogenase; type: biochemical; conditions: purified preparation
Excerpt: as §1

[5] = system: aldehyde oxidase; test: Substrate specificity of the conversion of RPdR to RUdR; type: in vitro ADME, rat; conditions: substrate 180 μM; 2 to 4 separate experiments; in nmol/mg/min
Method: as §2
For the standard assay condition, the reaction mixture contained 50 mM Tris-HCl, pH 7.5, 1 mM EDTA, 180 μM of IPdR (or its analogs) and approximately 0.01 mg protein of 10,000 g supernatant of tissue homogenate in a final volume of 500 μl and the incubation was at 37° C. for 10 minutes unless specified otherwise. 300 μl of reaction mixture was removed at the end of incubation and mixed with 630 μl acetonitrile then agitated. The precipitated protein were removed by centrifugation and the supernatant was lyophilized to dryness. The samples were reconstituted to the original aliquot volume with the HPLC mobile phase buffer and analyzed on a Alltech RP-18 column. IPdR, IUdR and IU were detected at a UV absorption wavelength of 230 nm, and IPdR was also detected at a UV absorption wavelength of 335 nm. The mobile phase was 10% acetonitrile/90%mM ammonium acetate, pH 6.8 and the flow rate was 1 ml/minute. Standard curves of IPdR and IUdR were established from the integration value of known concentrations.
Several 2-pyrimidinone deoxyribose analogs were examined for the conversion to their deoxyuridine counterparts. […] Nevertheless the relative Vmax for IPdR in the reaction at pH 7.5 and pH 9.5 is the same. […] The synthetic substrates for aldehyde oxidase appear to be better than its natural substrates, N^1 -methylnicotinamide and acetaldehyde, as judged by the potency of inhibition of N^1 -methylnicotinamide and acetaldehyde to the IPdR oxidation reaction (Table IV). The rate of reactivity of the liver enzyme with different IPdR analogs follows the order EPdR, IP, IPdR, 5-bromo-2-pyrimidinone deoxyribose (BPdR) and 5-methyl-2-pyrimidinone deoxyribose (MPdR) or 5-ethyl-2-pyrimidinone deoxyribose (EtPdR) (Table V). Electronegative substituents in the 5-position seemed to increase the substrate activity in this oxidation reaction.
Substrate specificity of the conversion of […]

O=c1ncc(I)cn1[C@H]1C[C@H](O)[C@@H](CO)O1 [IPdR, 1-(2-deoxy-β-D-ribofuranosyl)-5-(iodo)-2-pyrimidinone]
conversion of IPdR by alcohol oxidase [1]: not detected
Specific activity of the conversion of IPdR to IUdR [2]: 2-7 n mole/mg protein/min
rate of IUdR synthesis by partially purified enzyme [3]: 3.8 μmoles per minute per milligram of protein
conversion of IPdR by alcohol dehydrogenase [4]: not detected
Conversion of RPdR to RUdR [5]: 11 ± 2
